Laboratory results as given in patent publication US12281116B2, “HTT modulators for treating Huntington's disease” (CHDI Foundation, Inc., priority 2021, dated 2025).

System: tHTT (total HTT protein)
Test: Time-resolved FRET (HTRF) assay: Q48-Huntingtin and total-Huntingtin detection in GEN020 hESC lysates
Format: cell-based
Details: tHTT activity; human embryonic stem cells GEN020 (mutant 48 Q repeat allele); test compounds 48 hours; read-out: HTT Lowering Activity (HTRF)
Description: Time-resolved FRET assay: Q48-Huntingtin and total-Huntington detection Detection of endogenous HTT protein in cell lysates was performed using a protocol adapted from Weiss et al. See Weiss A et al. (2009). Single-step detection of mutant huntingtin in animal and human tissues: a bioassay for Huntington's disease. Anal. Biochem. 395(1): 8-15.
The multiplex assay was performed in human embryonic stem cells (GEN020 hESCs with mutant 48 Q repeat allele) which have been derived by Genea Biocells from human blastocysts of HD donors. Bradley C K et al. (2011). Derivation of Huntington's disease-affected human embryonic stem cell lines, Stem Cells Dev. 2011 March; 20(3):495-502. Cells were plated into 384-well collagen coated plates (10,000 cells per well) and left to adhere for 24 hours, test compounds were then added for 48 hours (37° C., 5% CO2), cells were then lysed, and the lysate was transferred to a black 384-well assay plate.
The assay plate included a combination of HTRF labelled monoclonal antibodies added to recognize discreet areas of the HTT protein, the Tb “donor” antibody (2B7-Tb: 0.2 ng/well) recognizes a sequence at the N-terminus of the protein, an Alexa488 “acceptor 1” antibody (MW1-Alexa488: 30 ng/well) recognizes an area in the polyQ region, whereas a d2 “acceptor 2” antibody (MAB2166-d2: 6 ng/well) recognizes a sequence beyond the polyQ region. These detection reagents were incubated with the cell lysate at room temperature for 4-6 hours before having their fluorescence quantified at 615 nm (donor) and 535 nm and 665 nm (acceptor 1 and 2 respectively). The donor/acceptor ratio between these signals indicated the relative quantities of mHTT and tHTT.
Results for various compounds described herein are provided in the Tables below. tHTT activity in this assay is categorized as 10-20 μM (−); 1-10 μM (+); 0.5-1 μM (++); 0.1-0.5 μM (+++); <0.1 μM (++++).

Cc1cn2cc(NC(=O)c3cnc(N4CCC(C)(N)C4)cn3)cc(F)c2n1 (racemic) [Example 42, 5-(3-Amino-3-methyl-pyrrolidin-1-yl)-N-(8-fluoro-2-methyl-imidazo[1,2-a]pyridin-6-yl)pyrazine-2-carboxamide]
IC50: 0.1 to 0.5 µM

Cc1cn2cc(NC(=O)c3cnc(N4CCC(N(C)C)C4=O)cn3)cc(F)c2n1 (single isomer, unassigned) [Example 38, (S*)-5-(3-(dimethylamino)-2-oxopyrrolidin-1-yl)-N-(8-fluoro-2-methylimidazo[1,2-a]pyridin-6-yl)pyrazine-2-carboxamide]
IC50: 0.5 to 1 µM

Cc1cn2cc(NC(=O)c3cnc(N4CCC(N(C)C)C4=O)cn3)cc(F)c2n1 (single isomer, unassigned) [Example 39, (R*)-5-(3-(dimethylamino)-2-oxopyrrolidin-1-yl)-N-(8-fluoro-2-methylimidazo[1,2-a]pyridin-6-yl)pyrazine-2-carboxamide]
IC50: 0.5 to 1 µM

Cc1cn2cc(NC(=O)c3cnc(N4CC(CNC5CC5)CC4=O)cn3)cc(F)c2n1 (single isomer, unassigned) [Example 40, (R*)-5-(4-((cyclopropylamino)methyl)-2-oxopyrrolidin-1-yl)-N-(8-fluoro-2-methylimidazo[1,2-a]pyridin-6-yl)pyrazine-2-carboxamide]
IC50: 0.1 to 0.5 µM

Cc1cn2cc(NC(=O)c3cnc(N4CC(CNC5CC5)CC4=O)cn3)cc(F)c2n1 (single isomer, unassigned) [Example 41, (S*)-5-(4-((cyclopropylamino)methyl)-2-oxopyrrolidin-1-yl)-N-(8-fluoro-2-methylimidazo[1,2-a]pyridin-6-yl)pyrazine-2-carboxamide]
IC50: 0.5 to 1 µM

Cn1cc2cc(NC(=O)c3cnc(N4CC[C@@H](NC5CC5)C4)cn3)c(OC3CCOCC3)cc2n1 [Example 2, (R)-5-(3-(cyclopropylamino)pyrrolidin-1-yl)-N-(2-methyl-6-((tetrahydro-2H-pyran-4-yl)oxy)-2H-indazol-5-yl)pyrazine-2-carboxamide]
IC50: 0.5 to 1 µM

CC#CCOc1cc2nn(C)cc2cc1NC(=O)c1cnc(N2CC[C@@H](NC3CC3)C2)cn1 [Example 3, (R)-N-(6-(but-2-yn-1-yloxy)-2-methyl-2H-indazol-5-yl)-5-(3-(cyclopropylamino)pyrrolidin-1-yl)pyrazine-2-carboxamide]
IC50: 0.1 to 0.5 µM

C#CCOc1cc2nn(C)cc2cc1NC(=O)c1cnc(N2CC[C@@H](NC)C2)cn1 [Example 4, (R)-N-(2-methyl-6-(prop-2-yn-1-yloxy)-2H-indazol-5-yl)-5-(3-(methylamino)pyrrolidin-1-yl)pyrazine-2-carboxamide]
IC50: < 0.1 µM

C#CCOc1cc2nn(C)cc2cc1NC(=O)c1cnc(N2CC[C@@H](NC3CC3)C2)cn1 [Example 5, (R)-5-(3-(cyclopropylamino)pyrrolidin-1-yl)-N-(2-methyl-6-(prop-2-yn-1-yloxy)-2H-indazol-5-yl)pyrazine-2-carboxamide]
IC50: 0.1 to 0.5 µM

Cn1cc2cc(NC(=O)c3cnc(N4CC[C@@H](NC5CC5)C4)cn3)c(OCC3CCOCC3)cc2n1 [Example 6, (R)-5-(3-(cyclopropylamino)pyrrolidin-1-yl)-N-(2-methyl-6-((tetrahydro-2H-pyran-4-yl)methoxy)-2H-indazol-5-yl)pyrazine-2-carboxamide]
IC50: 0.5 to 1 µM

Cn1cc2cc(NC(=O)c3cnc(N4CC[C@@H](NC5CC5)C4)cn3)c(OCC#N)cc2n1 [Example 7, (R)-N-(6-(cyanomethoxy)-2-methyl-2H-indazol-5-yl)-5-(3-(cyclopropylamino)pyrrolidin-1-yl)pyrazine-2-carboxamide]
IC50: 0.1 to 0.5 µM

CN[C@@H]1CCN(c2cnc(C(=O)Nc3cc4cn(C)nc4cc3OCc3ccccc3)cn2)C1 [Example 8, (R)-N-(6-(benzyloxy)-2-methyl-2H-indazol-5-yl)-5-(3-(methylamino)pyrrolidin-1-yl)pyrazine-2-carboxamide]
IC50: < 0.1 µM

COCCOc1cc2nn(C)cc2cc1NC(=O)c1cnc(N2CC[C@@H](NC3CC3)C2)cn1 [Example 9, (R)-5-(3-(cyclopropylamino)pyrrolidin-1-yl)-N-(6-(2-methoxyethoxy)-2-methyl-2H-indazol-5-yl)pyrazine-2-carboxamide]
IC50: 0.1 to 0.5 µM

CN1CCCC2(C1)CN(c1cnc(C(=O)Nc3cc4cn(C)nc4cc3OCc3ccccc3)cn1)C2 [Example 10, N-(6-(benzyloxy)-2-methyl-2H-indazol-5-yl)-5-(6-methyl-2,6-diazaspiro[3.5]nonan-2-yl)pyrazine-2-carboxamide]
IC50: 0.1 to 0.5 µM

C#CCOc1cc2nn(C)cc2cc1NC(=O)c1cnc(N2CC3(CCCN(C)C3)C2)cn1 [Example 11, N-(2-methyl-6-(prop-2-yn-1-yloxy)-2H-indazol-5-yl)-5-(6-methyl-2,6-diazaspiro[3.5]nonan-2-yl)pyrazine-2-carboxamide]
IC50: 0.1 to 0.5 µM

Cc1nc2c(F)cc(NC(=O)c3cnc(N4CC(CNC(C)C)C4)cn3)cc2o1 [Example 12, N-(4-fluoro-2-methylbenzo[d]oxazol-6-yl)-5-(3-((isopropylamino)methyl)azetidin-1-yl)pyrazine-2-carboxamide]
IC50: 0.1 to 0.5 µM

Cc1cn2cc(NC(=O)c3cnc(N4C[C@@H](C)[C@H](NC5CC5)C4)cn3)cc(F)c2n1 [Example 13, 5-((3S,4R)-3-(cyclopropylamino)-4-methylpyrrolidin-1-yl)-N-(8-fluoro-2-methylimidazo[1,2-a]pyridin-6-yl)pyrazine-2-carboxamide]
IC50: 0.1 to 0.5 µM

Cc1nc2c(F)cc(NC(=O)c3cnc(N(C)C4CCNCC4)cn3)cc2o1 [Example 14, N-(4-fluoro-2-methylbenzo[d]oxazol-6-yl)-5-(methyl(piperidin-4-yl)amino)pyrazine-2-carboxamide]
IC50: 0.1 to 0.5 µM

CN[C@@H]1CCN(c2cnc(C(=O)Nc3cc(Cl)n4nc(C)cc4c3)cn2)C1 [Example 15]
IC50: < 0.1 µM

Cc1cc2cc(NC(=O)c3cnc(N4CC[C@@H](CNC5CC5)C4)cn3)cc(Cl)n2n1 [Example 16]
IC50: 0.5 to 1 µM

CCOc1cc2nn(C)cc2cc1NC(=O)c1cnc(N2CC(CN3CC(F)C3)C2)cn1 [Example 17]
IC50: 0.1 to 0.5 µM

Cn1cc2cc(NC(=O)c3cnc(N4CC[C@@H](NC5CC5)C4)cn3)c(OC(F)F)cc2n1 [Example 18]
IC50: 0.1 to 0.5 µM

CN[C@@H]1CCN(c2cnc(C(=O)Nc3cc(F)c4nc(C)nn4c3)cn2)C1 [Example 19, (R)-N-(8-fluoro-2-methyl-[1,2,4]triazolo[1,5-a]pyridin-6-yl)-5-(3-(methylamino)pyrrolidin-1-yl)pyrazine-2-carboxamide]
IC50: 0.1 to 0.5 µM

Cc1cn2cc(NC(=O)c3cnc(N4CC[C@@H](NC5=NCCN5)C4)cn3)cc(F)c2n1 [Example 20, (R)-5-(3-((4,5-dihydro-1H-imidazol-2-yl)amino)pyrrolidin-1-yl)-N-(8-fluoro-2-methylimidazo[1,2-a]pyridin-6-yl)pyrazine-2-carboxamide]
IC50: 0.1 to 0.5 µM

CN[C@@H]1CCN(c2cnc(C(=O)Nc3cn4cc(C)nc4c(F)c3C)cn2)C1 [Example 21, (R)-N-(8-fluoro-2,7-dimethylimidazo[1,2-a]pyridin-6-yl)-5-(3-(methylamino)pyrrolidin-1-yl)pyrazine-2-carboxamide]
IC50: 0.1 to 0.5 µM

CN[C@@H]1CCN(c2cnc(C(=O)Nc3cc(OC)c4nc(C)oc4c3)cn2)C1 [Example 22, (R)-N-(4-methoxy-2-methylbenzo[d]oxazol-6-yl)-5-(3-(methylamino)pyrrolidin-1-yl)pyrazine-2-carboxamide]
IC50: 0.1 to 0.5 µM
